The source made the active and inactive calls. The rule behind the calls is not given here.
Columns and labels:
[1] = biological target: Histamine H1 receptor (Cavia porcellus) (UniProt P31389); test: In vitro agonist activity at histamine H1 receptor in guinea pig ileum assessed as contractile response relative to histamine in presence of atropine; format: tissue-based
Rattus norvegicus [2] = test: In vivo agonist activity at histamine H2 receptor in iv dosed anesthetized rat assessed as stimulation of gastric acid secretion relative to histamine; format: functional, Stomach
Rattus norvegicus [3] = test: In vivo agonist activity at histamine H2 receptor in anesthetized rat assessed as stimulation of gastric acid secretion at 486 uml/kg, iv; format: functional, organism-based; conditions: Stomach
Rattus norvegicus [4] = test: In vivo antagonist activity at histamine H2 receptor in anesthetized rat assessed as inhibition of histamine-stimulated gastric acid secretion up to 256 umol/kg, iv; format: functional, organism-based; conditions: Stomach
[5] = Retardation factor of the compound using EtOCH2CH2OH-HCl(11N)-H2O at ratio of 8:1:1 as solvent system by thin layer chromatography; format: physicochemical; conditions: buffer
[6] = Retardation factor of the compound using MeOH-NH4OH-H2O at ratio of 6:1:1 as solvent system by thin layer chromatography; format: physicochemical

Chain of Histamine H1 receptor (Cavia porcellus) (P31389 whole entry): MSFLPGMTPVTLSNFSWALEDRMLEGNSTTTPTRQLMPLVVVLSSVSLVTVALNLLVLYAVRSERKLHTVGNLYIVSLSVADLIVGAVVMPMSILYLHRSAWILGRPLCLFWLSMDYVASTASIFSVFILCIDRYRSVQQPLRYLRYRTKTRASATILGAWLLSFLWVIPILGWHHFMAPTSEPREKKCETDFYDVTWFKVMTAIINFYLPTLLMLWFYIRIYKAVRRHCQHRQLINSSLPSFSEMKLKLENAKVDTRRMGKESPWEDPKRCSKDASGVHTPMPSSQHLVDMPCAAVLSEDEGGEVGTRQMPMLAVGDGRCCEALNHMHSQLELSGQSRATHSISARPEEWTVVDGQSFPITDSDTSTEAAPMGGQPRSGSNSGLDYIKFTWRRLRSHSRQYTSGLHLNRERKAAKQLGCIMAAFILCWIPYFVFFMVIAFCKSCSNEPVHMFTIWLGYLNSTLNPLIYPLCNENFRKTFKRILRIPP

| SMILES | Activity [1] [%] | Activity (Rattus norvegicus [2]) [%] | Activity (Rattus norvegicus [3]) | Activity (Rattus norvegicus [4]) | Rf [5] | Rf [6] |
| --- | --- | --- | --- | --- | --- | --- |
| Cc1ncc(CCN(C)C)[nH]1.Cl | 16.8 | 1.4 |  |  |  |  |
| CC(C)(CN)c1cnc[nH]1 | < 0.001 |  | inactive | inactive |  |  |
| Cl.Cl.Cn1cnc(CCN)c1 [N-METHYLHISTAMINE DIHYDROCHLORIDE] | 0.5 |  |  | inactive |  |  |
| Cc1nc[nH]c1CCN(C)C.Cl | 0.1 | 3 |  |  | 0.57 | 0.72 |
| CN(C)CCc1cnc[nH]1.Cl | 44 | 19 |  |  |  |  |
| Cc1ncc(CCN)[nH]1.Cl | 16.5 | 2 |  |  |  |  |
| Cc1nc[nH]c1CCN.Cl | 0.23 | 39 |  |  | 0.7 | 0.56 |
| NCCc1c[nH]cn1 [HISTAMINE] |  |  |  |  | 0.7 | 0.52 |
| CC(N)Cc1cnc[nH]1.Cl (stereo not given) | 0.36 | 0.8 |  | inactive |  |  |
| CNCCc1cnc[nH]1.Cl | 72 | 74 |  |  | 0.68 | 0.46 |
| Cl.Cn1cncc1CCN | < 0.01 | <0.2 |  | inactive | 0.56 | 0.63 |
| CC(CN)c1cnc[nH]1.Cl (stereo not given) | 0.83 | 0.4 |  | inactive |  |  |
| CNCCc1[nH]cnc1C.Cl | 0.16 | 8.2 |  |  | 0.7 | 0.51 |

From ChEMBL document CHEMBL3271981, “Potential histamine H2-receptor antagonists. 3. Methylhistamines” (J Med Chem, 1976)
